Experimental data: patent US20150118315A1, “AROMATIC-CATIONIC PEPTIDES AND USES OF SAME” (Stealth Peptides International, Inc., priority 2011, published 2015)

How the values were obtained:
[1] = dog, in vivo
Protocol: A second series of tests will be carried out, as noted above, using beagle dogs. […] In the experiments, size 00 HPLC capsules will be filled with 758 mg of a powdered blend consisting of citric acid (643 mg), lauroyl carnitine (66 mg), talc (33 mg), salmon calcitonin (sCT) (13 mg) and aromatic-cationic peptide (2.4 mg). Half of the capsules will be coated with an enteric coating solution of L30D-55, while the remaining 50% of the capsules will not be coated. Four fasted dogs will be each given 1 uncoated capsule, and 2 weeks later they will be each given an enteric coated capsule. […] The plasma samples will be subsequently analyzed for sCT by a direct ELISA, and for aromatic-cationic peptide by HPLC-mass spectrometry performed as set forth in Wan, H. and Desiderio, D., Quantitation of dmt-DALDA in ovine plasma by on-line liquid chromatography/quadrapole time-of-flight mass spectrometry, Rapid Communications in Mass Spectrometry, 2003; 17, 538-546, the contents of which are incorporated herein by reference.
The results will be summarized as plasma peptide concentration normalized to a 1 mg dose as a function of time relative to the average Tmax, (i.e., the time at which the maximum amount of peptide is detected). The results are expected to indicate that both peptides, i.e., sCT and aromatic-cationic peptide, are detected in dogs given uncoated or enteric coated capsules.

[2] = Blood levels of salmon calcitonin after injection into duodenum, ileum or colon; format: in vivo; conditions: rat, other: injected directly into the duodenum, active components injected directly into the duodenum
Excerpt: The pH-lowering agent is believed to lower the local pH (where the active agent has been released) to levels below the optimal range for many intestinal proteases. This decrease in pH reduces the proteolytic activity of the intestinal proteases, thus affording protection to the peptide from potential degradation should the peptide be present within the intestine. The activity of these proteases is diminished by the temporarily acidic environment as discussed herein. For example, sufficient acid should be provided that local intestinal pH is lowered temporarily to 5.5 or below, 4.7 or below, or 3.5 or below. The sodium bicarbonate test described below (in the section captioned “the pH-Lowering Agent”) is indicative of the required acid amount. […] The absorption enhancers of the present formulations synergistically promote peptide absorption into the blood while conditions of reduced proteolytic activity prevail. The mechanism by which the present formulations are believed to accomplish the goal of enhanced bioavailability is aided by having active components of the finished pharmaceutical product released together as simultaneously as possible.
The acid is believed to lower the local intestinal pH, where the aromatic-cationic peptide has been released, to levels below the optimal range for many intestinal proteases and other intestinal enzymes. […]

CC(C)C[C@H](NC(=O)[C@H](CCCCN)NC(=O)CNC(=O)[C@H](CC(C)C)NC(=O)[C@@H](NC(=O)[C@@H]1CSSC[C@H](N)C(=O)N[C@@H](CO)C(=O)N[C@@H](CC(N)=O)C(=O)N[C@@H](CC(C)C)C(=O)N[C@@H](CO)C(=O)N[C@@H]([C@@H](C)O)C(=O)N1)C(C)C)C(=O)N[C@@H](CO)C(=O)N[C@@H](CCC(N)=O)C(=O)N[C@@H](CCC(=O)O)C(=O)N[C@@H](CC(C)C)C(=O)N[C@@H](Cc1c[nH]cn1)C(=O)N[C@@H](CCCCN)C(=O)N[C@@H](CC(C)C)C(=O)N[C@@H](CCC(N)=O)C(=O)N[C@H](C(=O)N[C@@H](Cc1ccc(O)cc1)C(=O)N1CCC[C@H]1C(=O)N[C@@H](CCCNC(=N)N)C(=O)N[C@H](C(=O)N[C@@H](CC(N)=O)C(=O)N[C@H](C(=O)NCC(=O)N[C@@H](CO)C(=O)NCC(=O)N[C@H](C(=O)N1CCC[C@H]1C(N)=O)[C@@H](C)O)[C@@H](C)O)[C@@H](C)O)[C@@H](C)O [salmon calcitonin]
amount detected in plasma, enteric coated vs non-coated capsules [1]: nearly eight times | Tmax [2]: 5 to 15 min
